A short description of series [1]: Target plasma level calculated for pigs. Format: in vivo, pig. The source says:
These very initial studies in this pig model are understood to represent proof of concept that formulations of the invention may be able to provide sustained release for up to three months, especially after IM administration, in a human model.

The next series has as its system testosterone. As to the kind of experiment: Plasma level needed to prevent testosterone breakthrough (rat). Format: in vivo. To be noted: between doses. The procedure:
In the rat, the mean plasma concentration level of degarelix which is necessary to ensure there is no testosterone breakthrough between doses is 6 ng/mL, and this value was therefore selected as the target level for the present work. In other words, if the mean plasma concentration of degarelix is 6 ng/mL or greater after administration of a given formula, this is a good indicator that the formulation would be effective (for the duration of the study).

For series [2] the following is noted: in vivo.
For series [3] the following is noted: human, in vivo; cited from earlier work.

The source of these data is patent US10441626B2, “Microparticles comprising GNRH made by PGSS” (Ferring B.V., priority 2013, dated 2019).

Where a SMILES comes first, the peptide text is derived from it. [ ]: non-standard residue; d: D form. The star is where a group is joined. dPhe(4-NHCONH2) = NC(=O)Nc1ccc(C[C@@H](N)C(=O)O)cc1; Dihydroorotyl(S) = O=C1C[C@@H](C(=O)*)NC(=O)N1; dPhe(4-Cl) = N[C@H](Cc1ccc(Cl)cc1)C(=O)O; Phe(4-NH2) = Nc1ccc(C[C@H](N)C(=O)O)cc1; d2Nal = N[C@H](Cc1ccc2ccccc2c1)C(=O)O; Lys(iPr) = CC(C)NCCCC[C@H](N)C(=O)O; NMeY = CN[C@@H](Cc1ccc(O)cc1)C(=O)O; d3Pal = N[C@H](Cc1cccnc1)C(=O)O

Take `CC(=O)N[C@H](Cc1ccc2ccccc2c1)C(=O)N[C@H](Cc1ccc(Cl)cc1)C(=O)N[C@H](Cc1cccnc1)C(=O)N[C@@H](CO)C(=O)N[C@@H](Cc1ccc(NC(=O)[C@@H]2CC(=O)NC(=O)N2)cc1)C(=O)N[C@H](Cc1ccc(NC(N)=O)cc1)C(=O)N[C@@H](CC(C)C)C(=O)N[C@@H](CCCCNC(C)C)C(=O)N1CCC[C@H]1C(=O)N[C@H](C)C(N)=O` [degarelix, D-Alaninamide, N-acetyl-3-(2-naphthalenyl)-D-alanyl-4-chloro-D-phenylalanyl-3-(3-pyridinyl)-D-alanyl-L-seryl-4-[[[(4S)-hexahydro-2,6-dioxo-4-pyrimidinyl]carbonyl]amino]-L-phenylalanyl-4-[(aminocarbonyl)amino]-D-phenylalanyl-L leucyl-N6-(1-methylethyl)-L-lysyl-L-prolyl] (Ac-[d2Nal][dPhe(4-Cl)][d3Pal]S[Phe(4-NH2)](Dihydroorotyl(S))[dPhe(4-NHCONH2)]L[Lys(iPr)]P[dA]-NH2): the “target level of mean degarelix concentration” value in series [1] was 8 ng/mL. Also, the “mean plasma concentration necessary to ensure no testosterone breakthrough” value in the series on testosterone is 6 ng/mL. Further, the efficacy and tolerability entry in series [2] was “effective and well-tolerated without evidence of systemic allergic reactions”.
In the case of `CC(=O)N[C@H](Cc1ccc2ccccc2c1)C(=O)N[C@H](Cc1ccc(Cl)cc1)C(=O)N[C@H](Cc1cccnc1)C(=O)N[C@@H](CO)C(=O)N(C)[C@@H](Cc1ccc(O)cc1)C(=O)N[C@H](CC(N)=O)C(=O)N[C@@H](CC(C)C)C(=O)N[C@@H](CCCCNC(C)C)C(=O)N1CCC[C@H]1C(=O)N[C@H](C)C(N)=O` [Abarelix] (Ac-[d2Nal][dPhe(4-Cl)][d3Pal]S[NMeY][dN]L[Lys(iPr)]P[dA]-NH2), the allergic reaction risk entry in series [3] is “risk of serious allergic reactions, including anaphylaxis with hypotension and syncope”.
